For series [1], the target named is T1, trypsin-activated recombinant human renin (Homo sapiens, UniProt P00797).
T1 sequence (P00797 67-406): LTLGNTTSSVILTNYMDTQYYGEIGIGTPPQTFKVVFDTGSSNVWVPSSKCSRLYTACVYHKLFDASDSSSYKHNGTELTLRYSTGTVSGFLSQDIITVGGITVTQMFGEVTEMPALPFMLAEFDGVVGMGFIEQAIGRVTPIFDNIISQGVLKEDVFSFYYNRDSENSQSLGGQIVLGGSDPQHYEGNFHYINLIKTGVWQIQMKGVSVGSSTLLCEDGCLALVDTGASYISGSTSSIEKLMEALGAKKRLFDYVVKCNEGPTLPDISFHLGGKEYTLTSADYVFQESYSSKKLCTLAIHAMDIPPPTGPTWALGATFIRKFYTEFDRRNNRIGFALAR
Description: In vitro renin inhibition, fluorescence of internally quenched peptide substrate. It counts as biochemical. The settings on record: pH 7.0, rt. On the procedure:
The sequence of this peptide corresponds to the sequence of human angiotensinogen. The following test protocol was used. All reactions were carried out in a flat bottom white opaque microtiter plate. A 4 μL aliquot of 400 μM renin substrate (DABCYL-γ-[…]) in 192 μL assay buffer (50 mM BES, 150 mM NaCl, 0.25 mg/mL bovine serum albumin, pH7.0) was added to 4 μL of test compound in DMSO at various concentrations ranging from 10 μM to 1 nM final concentrations. Next, 100 μL of trypsin-activated recombinant human renin (final enzyme concentration of 0.2-2 nM) in assay buffer was added, and the solution was mixed by pipetting. The increase in fluorescence at 495 nm (excitation at 340 nm) is measured for 60-360 minutes at rt using a Perkin-Elmer Fusion microplate reader. The slope of a linear portion of the plot of fluorescence-increase as a function of time was then determined, and the rate was used for calculating percent inhibition in relation to uninhibited control. […] (Wang G. T. et al. Anal. Biochem. 1993, 210, 351; Nakamura, N. et al. J. Biochem. (Tokyo) 1991, 109, 741; Murakami, K. et al. Anal Biochem. 1981, 110, 232).

Series [2] concerns the target T2, plasma renin activity (PRA) (Homo sapiens, UniProt P00797).
T2 construct: 87.3% of pooled mixed-gender human plasma stabilized with EDTA; from tissue; host or cells: pooled mixed-gender human plasma (EDTA)
T2 sequence (P00797 67-406): T1 sequence (P00797 67-406)
Description: In vitro plasma renin activity (PRA) in human plasma, angiotensin I radioimmunoassay. It counts as biochemical. The settings on record: pooled human plasma, 37° C., 90 min, IC50 of plasma renin activity. How it is done: For plasma batches with low PRA (less than 1 ng/ml/hr) ˜2 pM of recombinant human renin was added to achieve PRA of 3-4 ng/ml/hr. The cleavage of endogenous angiotensinogen in plasma was carried out at 37° C. for 90 min and the product angiotensin I was measured by competitive radioimmunoassay using DiaSorin PRA kit.

Series [3] concerns double transgenic rats engineered to express human renin and human angiotensinogen. As to the kind of experiment: In vivo efficacy in double transgenic rats, telemetry blood pressure. The arrangement: species or system rat. The conditions noted are these: oral, 10 mg/kg, FIG. 3. On the procedure:
Double Transgenic Rat: The efficacy of the renin inhibitor 6a was evaluated in vivo in double transgenic rats engineered to express human renin and human angiotensinogen (Bohlender J, Fukamizu A, Lippoldt A, Nomura T, Dietz R, Menard J, Murakami K, Luft F C, Ganten D. High human renin hypertension in transgenic rats. Hypertension 1997, 29, 428-434).
(§1) Experiments were conducted in 6-week-old double transgenic rats (dTGRs). The model has been described in detail earlier. […] The human angiotensinogen construct made up the entire human angiotensinogen gene (5 exons and 4 introns), with 1.3 kB of 5′-flanking and 2.4 kB of 3′-flanking sequences. The rats were purchased from RCC Ltd (Füillinsdorf, Switzerland). Radio telemetry transmitters were surgically implanted at 4 weeks of age. The telemetry system provided 24-h recordings of systolic, mean, diastolic arterial pressure (SAP, MAP, DAP, respectively) and heart rate (HR). Beginning on day 42, animals were transferred to telemetry cages. A 24 h telemetry reading was obtained. Rats were then dosed orally on the following 4 consecutive days (days 43-46). The rats were monitored continuously and allowed free access to standard 0.3%-sodium rat chow and drinking water.

A short description of series [4]: Plasma concentration in transgenic rats after oral administration. Format: in vivo, rat. The settings on record: 10 mg/kg, FIG. 2. On the procedure: FIG. 2 is a plot showing mean plasma concentrations of compound 6a in transgenic rats over time following oral administration of 10 mg/kg of compound 6a.
as §1

The IC50 is the concentration that gives 50% inhibition. Turning to `CNC[C@H](CC1CCCOC1)NC(=O)N1CCC[C@@H]([C@@H](OCCNC(=O)OC)c2cccc(C)c2)C1` (stereo partly drawn) [Compound 1, methyl 2-((R)-((R)-1-((S)-1-(methylamino)-3-(tetrahydro-2H-pyran-3-yl)propan-2-ylcarbamoyl)piperidin-3-yl)(m-tolyl)methoxy)ethylcarbamate], the half-inhibitory concentration (IC50) in series [1] and in series [2] was below 10 nM throughout.
Regarding `CNC[C@H](C[C@H]1CCCOC1)NC(=O)N1CCC[C@@H]([C@@H](OCCNC(=O)OC)c2cccc(F)c2)C1` [Compound 2a, methyl 2-((R)-(3-fluorophenyl)((R)-1-((S)-1-(methylamino)-3-((R)-tetrahydro-2H-pyran-3-yl)propan-2-ylcarbamoyl)piperidin-3-yl)methoxy)ethylcarbamate], the IC50 in series [1] and in series [2] was below 10 nM each time.
Turning to `CNC[C@H](C[C@@H]1CCCOC1)NC(=O)N1CCC[C@@H]([C@@H](OCCNC(=O)OC)c2cccc(F)c2)C1` [Compound 2b, methyl 2-((R)-(3-fluorophenyl)((R)-1-((S)-1-(methylamino)-3-((S)-tetrahydro-2H-pyran-3-yl)propan-2-ylcarbamoyl)piperidin-3-yl)methoxy)ethylcarbamate], the concentration for half-maximal inhibition (IC50) was below 10 nM in series [1] and below 20 nM in series [2].
As for `CNC[C@H](C[C@H]1CCCOC1)NC(=O)N1CCC[C@@H]([C@@H](OCCNC(=O)OC)c2cc(F)cc(Cl)c2)C1` [Compound 3a, methyl 2-((R)-(3-chloro-5-fluorophenyl)((R)-1-((S)-1-(methylamino)-3-((R)-tetrahydro-2H-pyran-3-yl)propan-2-ylcarbamoyl)piperidin-3-yl)methoxy)ethylcarbamate], the IC50 in series [1] and in series [2] was below 1 nM throughout.
Regarding `CNC[C@H](C[C@@H]1CCCOC1)NC(=O)N1CCC[C@@H]([C@@H](OCCNC(=O)OC)c2cc(F)cc(Cl)c2)C1` [Compound 3b, Methyl 2-((R)-(3-chloro-5-fluorophenyl)((R)-1-((S)-1-(methylamino)-3-((S)-tetrahydro-2H-pyran-3-yl)propan-2-ylcarbamoyl)piperidin-3-yl)methoxy)ethylcarbamate], the IC50 in series [1] and in series [2] was below 10 nM in each case.
Turning to `CNC[C@H](C[C@H]1CCCOC1)NC(=O)N1CCC[C@@H]([C@@H](OCCNC(=O)OC)c2cc(F)cc(F)c2)C1` [Compound 4a, methyl 2-((R)-(3,5-difluorophenyl)((R)-1-((S)-1-(methylamino)-3-((R)-tetrahydro-2H-pyran-3-yl)propan-2-ylcarbamoyl)piperidin-3-yl)methoxy)ethylcarbamate], the IC50 in series [1] and in series [2] was below 10 nM in each case.
In the case of `CNC[C@H](C[C@@H]1CCCOC1)NC(=O)N1CCC[C@@H]([C@@H](OCCNC(=O)OC)c2cc(F)cc(F)c2)C1` [Compound 4b, methyl 2-((R)-(3,5-difluorophenyl)((R)-1-((S)-1-(methylamino)-3-((S)-tetrahydro-2H-pyran-3-yl)propan-2-ylcarbamoyl)piperidin-3-yl)methoxy)ethylcarbamate], the results for the half-maximal inhibitory concentration (IC50) in series [1] and in series [2] were below 10 nM and below 50 nM, respectively.
The like results for `CNC[C@H](C[C@H]1CCCOC1)NC(=O)N1CCC[C@@H]([C@@H](OCCNC(=O)OC)c2cc(F)ccc2C)C1` [Compound 5a, methyl 2-((R)-(5-fluoro-2-methylphenyl)((R)-1-((S)-1-(methylamino)-3-((R)-tetrahydro-2H-pyran-3-yl)propan-2-ylcarbamoyl)piperidin-3-yl)methoxy)-ethylcarbamate] were, in that order, below 10 nM and below 10 nM.
On the same counts, the results for `CNC[C@H](C[C@@H]1CCCOC1)NC(=O)N1CCC[C@@H]([C@@H](OCCNC(=O)OC)c2cc(F)ccc2C)C1` [Compound 5b, methyl 2-((R)-(5-fluoro-2-methylphenyl)((R)-1-((S)-1-(methylamino)-3-((S)-tetrahydro-2H-pyran-3-yl)propan-2-ylcarbamoyl)piperidin-3-yl)methoxy)-ethylcarbamate] are below 20 nM and below 50 nM.
As for `CNC[C@H](C[C@H]1CCCOC1)NC(=O)N1CCC[C@@H]([C@@H](OCCNC(=O)OC)c2cccc(Cl)c2)C1` [Compound 6a, methyl 2-((R)-(3-chlorophenyl)((R)-1-((S)-1-(methylamino)-3-((R)-tetrahydro-2H-pyran-3-yl)propan-2-ylcarbamoyl)piperidin-3-yl)methoxy)ethylcarbamate], the IC50 in series [1] is below 1 nM. For the same compound, the half-inhibitory concentration (IC50) in series [2] was below 1 nM. The “effect on mean arterial blood pressure” value in series [3] is recorded as “significant effect in lowering blood pressures”. Also, in series [4], the “oral bioavailability and metabolic stability” value is on record as “excellent”; the “plasma concentration of compound following oral administration” value is “remains relatively high over 24 h period”.
Take `CNC[C@H](C[C@@H]1CCCOC1)NC(=O)N1CCC[C@@H]([C@@H](OCCNC(=O)OC)c2cccc(Cl)c2)C1` [Compound 6b, methyl 2-((R)-(3-chlorophenyl)((R)-1-((S)-1-(methylamino)-3-((S)-tetrahydro-2H-pyran-3-yl)propan-2-ylcarbamoyl)piperidin-3-yl)methoxy)ethylcarbamate]: the half-maximal inhibitory concentration (IC50) in series [1] and in series [2] was below 10 nM in each case.
Regarding `CNC[C@H](C[C@H]1CCCOC1)NC(=O)N1CCC[C@@H]([C@@H](OCCNC(=O)OC)c2ccccc2)C1` [Compound 7, methyl 2-((R)-((R)-1-((S)-1-(methylamino)-3-((R)-tetrahydro-2H-pyran-3-yl)propan-2-ylcarbamoyl)piperidin-3-yl)(phenyl)methoxy)ethylcarbamate], the IC50 in series [1] is below 20 nM; in series [2], below 50 nM.
As for `CNC[C@H](C[C@H]1CCCOC1)NC(=O)N1CCC[C@@H]([C@@H](OCCNC(=O)OC)c2ccc(F)c(Cl)c2)C1` [Compound 8, methyl 2-((R)-(3-chloro-4-fluorophenyl)((R)-1-((S)-1-(methylamino)-3-((R)-tetrahydro-2H-pyran-3-yl)propan-2-ylcarbamoyl)piperidin-3-yl)methoxy)-ethylcarbamate], the IC50 in series [1] and in series [2] was below 10 nM throughout.
`CCOC(=O)NCCO[C@@H](c1cc(F)cc(Cl)c1)[C@@H]1CCCN(C(=O)N[C@H](CNC)C[C@H]2CCCOC2)C1` [Compound 9, ethyl 2-((R)-(3-chloro-5-fluorophenyl)((R)-1-((S)-1-(methylamino)-3-((R)-tetrahydro-2H-pyran-3-yl)propan-2-ylcarbamoyl)piperidin-3-yl)methoxy)-ethylcarbamate]: the IC50 in series [1] is below 10 nM; in series [2], below 50 nM.
As for `CNC[C@H](C[C@H]1CCCOC1)NC(=O)N1CCC[C@@H]([C@@H](OCCNC(=O)OC)c2cc(Cl)ccc2C)C1` [Compound 10, methyl 2-((R)-(5-chloro-2-methylphenyl)((R)-1-((S)-1-(methylamino)-3-((R)-tetrahydro-2H-pyran-3-yl)propan-2-ylcarbamoyl)piperidin-3-yl)methoxy)-ethylcarbamate], the 50% inhibitory concentration (IC50) was below 10 nM in series [1] and below 1 nM in series [2].

For the origin of these results see patent US20090318501A1, “Piperidine derivatives as renin inhibitors” (priority 2006, published 2009).
